Measured values from US9980936B2, “BH4 antagonists and methods related thereto” (Emory University, priority 2014, dated 2018).
“Also recorded” adds a separate entry of the source. Values belong to the compound of their own block, whether it stands above or below them.

How the values were obtained:
[1] = system: lung cancer cells
[2] = target: purified, human Bcl2 protein (Homo sapiens, UniProt P10415); assay: in vitro cell-free Bcl2 conformational change assay (IP with anti-Bcl2/BH3 domain antibody); type: biochemical
Protocol: To test whether BDA-2 directly induces Bcl2 conformational change, an in vitro cell-free assay was employed. Purified recombinant Bcl2 protein was incubated with increasing concentrations of BDA-2 in lysis buffer, followed by immunoprecipitation (IP) using the anti-Bcl2/BH3 domain antibody.

[3] = system: Plasmid pUC19 DNA; assay: electrophoretic mobility shift assay (EMSA); type: binding
Protocol: To test whether BDA-2 reacts with DNA as a crosslinker, electrophoretic mobility shift assay (EMSA) was performed. Cisplatin, a known DNA binding agent, was used as positive control. Plasmid pUC19 DNA was incubated with BDA-2 or cisplatin.

[4] = system: H460 cells; assay: SRB cell growth assay, combination with mTOR inhibitor; type: cell-based, human; settings: BDA-366 100 nM, RAD001 1 nM, alone or in combination, 72 hr
Protocol: Cell growth was analyzed by sulforhodamine B (SRB) colorimetric assay.

[5] = system: H460 cells; assay: Bcl2 expression after mTOR inhibition (Western blot); type: cell-based; settings: increasing concentrations, 24 hr
Protocol: (§1) A549 or H460 cells were treated with increasing concentrations of RAD001 for 24 h. Bcl2 and p-P70S6K were analyzed by Western blot.
(§2) Rapamycin and its derivative RAD001 (i.e. everolimus) are potent allosteric inhibitors of mTOR. […] Previous reports indicate that expression of Bcl2 is associated with resistance of cancer cells to mTOR inhibitors. To further test whether mTOR inhibition regulates Bcl2 expression, A549 and H460 cells were treated with increasing concentrations of RAD001 for 24 hr.

[6] = system: A549 cells; assay: as above; type: cell-based; settings: increasing concentrations, 24 hr
Protocol: as §1, §2

[7] = system: Bcl2 in tumor tissues of NSCLC patients; assay: Bcl2 expression by IHC in tumor tissue of treated NSCLC patients; type: in vivo, human; settings: 5 or 10 mg/day for 28 days, 10 NSCLC patients
Protocol: To test whether a similar effect of RAD001 on Bcl2 expression occurs in patients Bcl2 expression was analyzed by IHC in baseline and post-treatment tissue samples obtained from 10 NSCLC patients treated with RAD001 (5 or 10 mg/day) for 28 days as part of a neoadjuvant clinical study of everolimus in patients with resectable NSCLC. […] Thus, inhibition of Bcl2 may enhance the potency of mTOR inhibitor against lung cancer.

[8] = system: purified recombinant Bax; assay: cell-free Bax activation (IP using 6A7 Bax antibody); type: biochemical; settings: without Bcl2
Protocol: BDA-366-induced Bcl2 conformational change was also confirmed by immunofluorescence using a Bcl2/BH3-domain specific antibody. […] To test this possibility, a 6A7 Bax antibody that only recognizes the conformationally changed, active, form of Bax was employed. Purified Bcl2 was treated with BDA-366 in lysis buffer for 1 h. The mixture of Bcl2/BDA-2 was then incubated with purified recombinant Bax for another 2 h, followed by IP using 6A7 antibody.
To further test whether the BH3 domain of Bcl2 is important for BDA-366 activation of Bax, purified recombinant WT and the BH3 deletion (ΔBH3) mutant Bcl2 proteins were incubated with purified Bax protein in the absence or presence of BDA-366, followed by IP with 6A7 antibody. […] To test this at the cellular or mitochondrial level, WT, ΔBH3 Bcl2 mutant and empty vector (pCIneo) were transfected into H1299 cells that express undetectable levels of endogenous Bcl2 but high levels of endogenous Bax. Cells or isolated mitochondria from these cells were treated with BDA-2, followed by IP with Bcl2 BH3 or 6A7 antibody, respectively.

[9] = system: H460 or DMS53 cells expressing Bcl2 shRNA transfected with AAAA Bcl2 mutant; assay: rescue of Bcl2-silenced cells with AAAA Bcl2 mutant; type: cell-based; settings: 72 h
From the text: (§3) Whether expression of exogenous Bcl2 can restore the sensitivity of Bcl2-silenced lung cancer cells to BDA-2 and whether the BDA-2/BH4 binding is important for such effect was examined. WT and BDA-2 binding deficient D10A/N11A/R12A/E13A (AAAA) Bcl2 mutant cDNA in pCIneo or vector-only control were transfected into H460 or DMS53 cells expressing Bcl2 shRNA. It has been reported that if the shRNA is directed to the 3′ UTR or 5′ UTR of the gene, the effect of the shRNA1 can be rescued by ectopically expressing the protein using the wild-type or mutant cDNA. Because Bcl2 shRNA1 targets the 5′UTR of endogenous Bcl2, the silencing effect of shRNA1 on Bcl2 expression could be rescued by transfection of exogenous WT or AAAA Bcl2 mutant. After transfection, cells were treated with BDA-2 or the BH3 mimetic ABT-199 at the indicated concentrations for 72 h. […] The apoptotic effect of BDA-2 on lung cancer cells requires its BH4 binding.

[10] = system: H460 or DMS53 cells expressing Bcl2 shRNA transfected with WT Bcl2; assay: rescue of Bcl2-silenced cells with exogenous WT Bcl2; type: cell-based; settings: 72 h
From the text: as §3

purified, human Bcl2 protein, sequence (P10415 whole entry, the tested form may be a part): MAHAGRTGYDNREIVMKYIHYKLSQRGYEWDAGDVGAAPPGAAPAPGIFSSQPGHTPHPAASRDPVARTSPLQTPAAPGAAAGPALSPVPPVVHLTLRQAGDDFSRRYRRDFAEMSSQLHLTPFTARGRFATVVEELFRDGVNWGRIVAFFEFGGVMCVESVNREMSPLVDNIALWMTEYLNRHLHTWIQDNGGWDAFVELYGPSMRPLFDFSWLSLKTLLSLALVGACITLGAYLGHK

Compound: C#Cc1cccc(Nc2ncnc3cc(OCCOC)c(OCCOC)cc23)c1 [erlotinib, N-(3-ethynylphenyl)-6,7-bis(2-methoxyethoxy)quinazolin-4-amine]
Bcl-2/Bcl-XL expression [1]: up-regulation of Bcl-2/Bcl-XL

direct induction of Bcl2 conformational change (BH3 exposure) [2]: not
Compound: COc1cc([C@@H]2c3cc4c(cc3[C@@H](O[C@@H]3O[C@@H]5CO[C@@H](C)O[C@H]5[C@H](O)[C@H]3O)[C@H]3COC(=O)[C@H]23)OCO4)cc(OC)c1O [VP-16]

Compound: N.N.[Cl][Pt][Cl] [cisplatin, reference compound]
binding to pUC19 DNA causing mobility shift [3]: can bind to pUC19 DNA to cause mobility shift
direct induction of Bcl2 conformational change (BH3 exposure) [2]: not

Compound: CO[C@H]1C[C@@H]2CC[C@@H](C)[C@@](O)(O2)C(=O)C(=O)N2CCCC[C@H]2C(=O)O[C@H]([C@H](C)C[C@@H]2CC[C@@H](OCCO)[C@H](OC)C2)CC(=O)[C@H](C)/C=C(\C)[C@@H](O)[C@@H](OC)C(=O)[C@H](C)C[C@H](C)/C=C/C=C/C=C/1C [RAD001]
cell growth inhibition [4]: partially inhibited lung cancer cell growth
Bcl2 expression [5]: up-regulation of Bcl2 in a dose-dependent manner; also recorded: up-regulates Bcl2
Bcl2 expression [6]: up-regulation of Bcl2 in a dose-dependent manner; also recorded: up-regulates Bcl2
Bcl2 expression in post-treatment tumor tissues compared to baseline [7]: increased expression of Bcl2

Compound: BAM7 [reference compound]
direct activation of Bax [8]: can directly activate Bax

Compound: CC1(C)CCC(CN2CCN(c3ccc(C(=O)NS(=O)(=O)c4ccc(NCC5CCOCC5)c([N+](=O)[O-])c4)c(Oc4cnc5[nH]ccc5c4)c3)CC2)=C(c2ccc(Cl)cc2)C1 [ABT-199, reference compound]
sensitivity of cells restored after expression of AAAA Bcl2 [9]: restored the sensitivity
sensitivity of cells after expression of exogenous WT Bcl2 [10]: restored sensitivity
